The source of these data is ChEMBL document CHEMBL1201862, “PubChem BioAssay data set” (2004).

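Cells were grown in 96-well plates and exposed to each compound for 48 hours at five concentrations; endpoints were interpolated linearly between bracketing concentrations, or set to the highest concentration if not reached. GI50 is the concentration that inhibits growth by half.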 Calls of active or inactive are those of the source. No stated cut-off is given here; in the data, active = GI50 up to about 1.1 µM and inactive = higher.

Test systems include A498; ACHN; HL-60; HT-29; Hs-578T; K562; M14; MCF7; OVCAR-3; OVCAR-5; PC-3; SF-295; SF-539; SK-MEL-28; SNB-19; SR; UACC-257; UO-31; OVCAR-8.
Holding throughout (assay): NCI-60 cell line screen, 48 h

As for `CCCCCCNCCCNc1c2cc(OC)ccc2nc2cccc([N+](=O)[O-])c12`, the GI50 with A498 was 1.62 µM (inactive); in the test on ACHN, 0.14 µM (active); in the test on HL-60 it was 0.214 µM (active); with HT-29, 0.0326 µM (active); in the test with Hs-578T, 0.299 µM (active); in the test on K562, 0.103 µM (active). The GI50 in the test with M14 was 0.143 µM (active); with MCF7 it was 0.212 µM (active); with OVCAR-3, 0.0966 µM (active); in the test with OVCAR-5 it was 0.135 µM (active); with PC-3 it was 0.144 µM (active); with SF-295 it was 0.0865 µM (active). The GI50 in the test with SF-539 was 0.29 µM (active); in the test on SK-MEL-28, 0.208 µM (active); in the test with SNB-19, 0.369 µM (active); in the test on SR it was 0.0173 µM (active); in the test with UACC-257, 0.366 µM (active); in the test with UO-31, 0.188 µM (active).
On to `O=c1c2c3c(sc2nc2n1N=C(c1ccc(Cl)cc1)CS2)CCCC3`, for which the GI50 in the test with A498, with ACHN, in the test on HL-60, in the test on HT-29, with Hs-578T and in the test with K562 was > 100 µM (inactive) each time. Further, the GI50 with MCF7, with OVCAR-3, with OVCAR-5, with OVCAR-8, with PC-3 and with SF-295 was > 100 µM (inactive) in each case. Also, the GI50 in the test on SF-539, in the test with SK-MEL-28, with SR, in the test on UACC-257 and in the test with UO-31 was > 100 µM (inactive) throughout.
For the molecule `O=C1/C(=C/c2ccc(Cl)cc2)CSc2ccccc21`, the GI50 is 62.5 µM (inactive) with A498; 17.9 µM (inactive) in the test on HL-60; 19.4 µM (inactive) in the test with HT-29; 4.57 µM (inactive) with Hs-578T; 3.37 µM (inactive) in the test on K562; 31.8 µM (inactive) in the test on M14. Moreover, the GI50 in the test with MCF7 is 2.26 µM (inactive); with OVCAR-3 it was 22.3 µM (inactive); with OVCAR-8 it was 20.5 µM (inactive); in the test on PC-3, 14.1 µM (inactive); with SF-539, 17.8 µM (inactive); in the test with SK-MEL-28, 23.1 µM (inactive). Also, the GI50 is 9.2 µM (inactive) in the test on SNB-19, 5 µM (inactive) in the test with SR, 12.7 µM (inactive) in the test with UACC-257 and 17.6 µM (inactive) with UO-31.
Regarding `Cc1cc(C)c2nc3c(c(C(O)C4CCCCN4)c2c1)CC/C3=C\c1ccc(Cl)cc1` (configuration not stated), the GI50 in the test on A498 was > 100 µM (inactive); in the test with ACHN, 78.3 µM (inactive); with HL-60, 10.7 µM (inactive); in the test on HT-29 it was 30.4 µM (inactive); with Hs-578T it was > 100 µM (inactive); in the test on K562, 38 µM (inactive). The GI50 with M14 is 75.9 µM (inactive); in the test with MCF7, 46.6 µM (inactive); with OVCAR-3, 42.1 µM (inactive); in the test with OVCAR-5, 41.1 µM (inactive); in the test on OVCAR-8, 58.6 µM (inactive); with PC-3 it was 54.1 µM (inactive). In addition, the GI50 in the test with SF-295 is 73.1 µM (inactive); with SF-539 it was > 100 µM (inactive); in the test on SK-MEL-28, > 100 µM (inactive); in the test with SNB-19 it was > 100 µM (inactive); with SR, 34.2 µM (inactive); in the test with UACC-257 it was 32.8 µM (inactive).
For the molecule `O=C(N/N=C1\CCc2ccccc21)N/N=C1\CCc2ccccc21`, the GI50 in the test with A498, in the test with ACHN, in the test with HL-60, with HT-29, with Hs-578T and in the test on K562 was > 100 µM (inactive) throughout. The GI50 was 13.5 µM (inactive) in the test on M14; > 100 µM (inactive) in the test with MCF7; > 100 µM (inactive) in the test on OVCAR-3; > 100 µM (inactive) in the test with OVCAR-5; > 100 µM (inactive) in the test with OVCAR-8; > 100 µM (inactive) in the test with PC-3. The GI50 in the test on SF-295 was > 100 µM (inactive); in the test with SF-539 it was > 100 µM (inactive); in the test on SK-MEL-28, > 100 µM (inactive); with SNB-19 it was > 100 µM (inactive); in the test with SR, 0.055 µM (active); with UACC-257, > 100 µM (inactive). Further, in the test on UO-31, the GI50 is > 100 µM (inactive).
In the case of `C=CCn1c(=O)c(C(=O)Nc2nc(C34CC5CC(CC(C5)C3)C4)cs2)c(O)c2ccccc21`, the GI50 in the test with A498 is 25.3 µM (inactive); in the test with ACHN, 29.5 µM (inactive); in the test on HL-60, 23.4 µM (inactive); in the test on HT-29, 19.1 µM (inactive); in the test on Hs-578T, 32.4 µM (inactive); in the test with K562, 15.1 µM (inactive). Further, the GI50 with MCF7 is 50.6 µM (inactive); with OVCAR-3, 49.3 µM (inactive); in the test on OVCAR-5, 91.6 µM (inactive); in the test with OVCAR-8, 82.8 µM (inactive); in the test on PC-3 it was 43.4 µM (inactive); in the test on SF-295 it was 17.9 µM (inactive). Moreover, the GI50 in the test with SF-539 was 60.8 µM (inactive); with SK-MEL-28, 63 µM (inactive); in the test with SNB-19, 53.6 µM (inactive); in the test on SR, 37.1 µM (inactive); with UACC-257 it was 10.2 µM (inactive); in the test on UO-31 it was 31.8 µM (inactive).
Turning to `CCOc1ccc(/N=N/C2C(=O)N(C(=O)CC(=O)Nc3ccc(C)cc3)N=C2C)cc1` (configuration not stated), the GI50 with A498 is 13.2 µM (inactive); with ACHN, 50.8 µM (inactive); with HL-60, 13.1 µM (inactive); in the test on HT-29, 24 µM (inactive); with Hs-578T it was 5.73 µM (inactive); in the test with M14 it was 52.7 µM (inactive). Moreover, the GI50 in the test on MCF7 was 40.6 µM (inactive); in the test with OVCAR-3, 20.6 µM (inactive); with OVCAR-5, > 100 µM (inactive); in the test on OVCAR-8, 16.6 µM (inactive); in the test on PC-3 it was > 100 µM (inactive); in the test with SF-295, 21.2 µM (inactive). In addition, the GI50 in the test with SF-539 was 14.8 µM (inactive); with SK-MEL-28 it was 30.8 µM (inactive); in the test with SNB-19, 14.3 µM (inactive); with SR, 14 µM (inactive); in the test on UACC-257 it was > 100 µM (inactive); with UO-31, 29.4 µM (inactive).
Regarding `N=C1CCCC1C(=S)SCCC(N)=O` (configuration not stated), the GI50 in the test on A498, in the test on ACHN, in the test with HL-60, in the test with HT-29, in the test on Hs-578T and with M14 was > 100 µM (inactive) throughout. For the same molecule, the GI50 with MCF7, in the test with OVCAR-3, in the test on OVCAR-5, with OVCAR-8, with PC-3 and in the test with SF-295 was > 100 µM (inactive) in each case. For the same molecule, the GI50 in the test on SF-539 is > 100 µM (inactive); in the test on SK-MEL-28, > 100 µM (inactive); with SNB-19 it was > 100 µM (inactive); in the test on SR, 19.3 µM (inactive); with UACC-257, > 100 µM (inactive); with UO-31, > 100 µM (inactive).
